Experimental data reported in PubChem BioAssay (NCI).
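In this assay, cells in 96-well plates receive the compound at five concentrations for 48 hours. Endpoints are linearly interpolated between the surrounding concentrations. Abbreviation: GI50, concentration required for 50% inhibition of growth. The concentration for full growth arrest is given as TGI.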

Key:
Assay in all cases: NCI-60 cell line screen, 48 h
[1] = system: OVCAR-5 ovarian
[2] = system: NCI-H226 lung
[3] = system: SNB-75 CNS
[4] = system: OVCAR-4 ovarian
[5] = system: NCI-H522 lung
[6] = system: HOP-92 NSCLC
[7] = system: UO-31 renal
[8] = system: IGROV1 ovarian
[9] = system: NCI-H460 lung
[10] = system: MCF7 breast
[11] = system: MDA-MB-435
[12] = system: OVCAR-8 ovarian
[13] = system: EKVX NSCLC
[14] = system: NCI/ADR-RES ovarian
[15] = system: A498 renal
[16] = system: MOLT-4 leukemia
[17] = system: SW-620 colon
[18] = system: LOX IMVI melanoma
[19] = system: KM12 colon
[20] = system: U251 CNS
[21] = system: RXF 393 renal
[22] = system: BT-549 breast
[23] = system: CAKI-1 renal
[24] = system: PC-3 prostate
[25] = system: MALME-3M melanoma
[26] = system: HCC-2998 colon
[27] = system: A549 NSCLC
[28] = system: M14 melanoma
[29] = system: HT29 colon
[30] = system: HS 578T breast
[31] = system: K-562 leukemia
[32] = system: MDA-MB-231 breast
[33] = system: UACC-62 melanoma
[34] = system: SF-268 CNS
[35] = system: 786-0 renal
[36] = system: HCT-116 colon
[37] = system: RPMI-8226 leukemia
[38] = system: OVCAR-3 ovarian
[39] = system: SF-295 CNS
[40] = system: DU-145 prostate
[41] = system: SK-MEL-2 melanoma
[42] = system: CCRF-CEM leukemia
[43] = system: COLO 205 colon
[44] = system: SN12C renal
[45] = system: HOP-62 NSCLC
[46] = system: HCT-15 colon
[47] = system: TK-10 renal
[48] = system: T-47D breast
[49] = system: NCI-H23 lung
[50] = system: HL-60(TB) leukemia
[51] = system: SK-MEL-5 melanoma
[52] = system: SR leukemia
[53] = system: SK-MEL-28 melanoma
[54] = system: UACC-257 melanoma
[55] = system: SK-OV-3 ovarian
[56] = system: SF-539 CNS
[57] = system: ACHN renal
[58] = system: SNB-19 CNS
[59] = system: MDA-N

`CNCc1cccc2c1OCCOCCOCCC(C)S(=O)(=O)c1ccc(cc1)-c1cnc(N)c(n1)C(=O)N2` (stereo not given) gave a GI50 [1] of 3.82 µM, a TGI [1] of 11.4 µM and a GI50 [2] of 1.98 µM. The TGI [2] was 5.46 µM, the GI50 [3] was 0.119 µM and the TGI [3] was 1.59 µM. The GI50 [4] was 1.32 µM, the TGI [4] was 4.32 µM and the GI50 [5] was 1.23 µM. It also gave a TGI [5] of 3.25 µM, a GI50 [6] of 11.5 µM and a TGI [6] of 25 µM. It also gave a GI50 [7] of 0.623 µM, a TGI [7] of 2.09 µM and a GI50 [8] of 0.659 µM. It also gave a TGI [8] of 4.78 µM, a GI50 [9] of 1.12 µM and a TGI [9] of 2.73 µM. The GI50 [10] was 1.28 µM, the TGI [10] was 14.6 µM and the GI50 [11] was 1.57 µM. It also gave a TGI [11] of 3.3 µM, a GI50 [12] of 1.78 µM and a TGI [12] of 7.9 µM. For the same compound, the GI50 [13] was 4.46 µM, the TGI [13] was 18.6 µM and the GI50 [14] was 5.31 µM. The TGI [14] was 29.1 µM, the GI50 [15] was 0.139 µM and the TGI [15] was 2.14 µM. It also gave a GI50 [16] of 1.3 µM, a TGI [16] of 10.3 µM and a GI50 [17] of 2.13 µM. The TGI [17] was 10.7 µM, the GI50 [18] was 1.81 µM and the TGI [18] was 5.41 µM. It also gave a GI50 [19] of 1.69 µM, a TGI [19] of 6.78 µM and a GI50 [20] of 1.15 µM. The TGI [20] was 3.62 µM, the GI50 [21] was 0.175 µM and the TGI [21] was 1.6 µM. It also gave a GI50 [22] of 1.53 µM, a TGI [22] of 5.23 µM and a GI50 [23] of 0.365 µM. The TGI [23] was 2.22 µM, the GI50 [24] was 1.49 µM and the TGI [24] was 17.9 µM. It also gave a GI50 [25] of 1.59 µM, a TGI [25] of 3.13 µM and a GI50 [26] of 4.53 µM. The TGI [26] was 17.2 µM, the GI50 [27] was 1.09 µM and the TGI [27] was 6.83 µM. For the same compound, the GI50 [28] was 1.27 µM, the TGI [28] was 3.03 µM and the GI50 [29] was 1.44 µM. For the same compound, the TGI [29] was 8.99 µM, the GI50 [30] was 0.602 µM and the TGI [30] was 3.09 µM. For the same compound, the GI50 [31] was 1.5 µM, the TGI [31] was 10.4 µM and the GI50 [32] was 2.34 µM. For the same compound, the TGI [32] was 5.5 µM, the GI50 [33] was 1.67 µM and the TGI [33] was 3.3 µM. For the same compound, the GI50 [34] was 1.18 µM, the TGI [34] was 3.33 µM and the GI50 [35] was 0.516 µM. It also gave a TGI [35] of 2.06 µM, a GI50 [36] of 1.18 µM and a TGI [36] of 3.35 µM. For the same compound, the GI50 [37] was 2.05 µM, the TGI [37] was 5.12 µM and the GI50 [38] was 1.16 µM. For the same compound, the TGI [38] was 2.59 µM, the GI50 [39] was 2.84 µM and the TGI [39] was 9.07 µM. For the same compound, the GI50 [40] was 1.25 µM, the TGI [40] was 3.41 µM and the GI50 [41] was 2.37 µM. It also gave a TGI [41] of 6.36 µM, a GI50 [42] of 0.67 µM and a TGI [42] of 7.2 µM. The GI50 [43] was 0.564 µM, the TGI [43] was 5.25 µM and the GI50 [44] was 1.24 µM. It also gave a TGI [44] of 3.14 µM, a GI50 [45] of 1.14 µM and a TGI [45] of 4.82 µM. For the same compound, the GI50 [46] was 1.11 µM, the TGI [46] was 6.2 µM and the GI50 [47] was 1.37 µM. The TGI [47] was 8.25 µM, the GI50 [48] was 3.62 µM and the TGI [48] was 18.7 µM. The GI50 [49] was 3.71 µM, the TGI [49] was 18.9 µM and the GI50 [50] was 1.81 µM. For the same compound, the TGI [50] was 3.83 µM, the GI50 [51] was 2.05 µM and the TGI [51] was 4.58 µM. It also gave a GI50 [52] of 0.0861 µM, a TGI [52] of 4.71 µM and a GI50 [53] of 1.77 µM. For the same compound, the TGI [53] was 3.37 µM, the GI50 [54] was 1.91 µM and the TGI [54] was 4.55 µM. For the same compound, the GI50 [55] was 0.525 µM, the TGI [55] was 2.87 µM and the GI50 [56] was 1.28 µM. It also gave a TGI [56] of 2.56 µM, a GI50 [57] of 1.3 µM and a TGI [57] of 2.82 µM. It also gave a GI50 [58] of 2.5 µM and a TGI [58] of 5.52 µM.

Work on `CC(C)=Nn1cnc2c1NC(C)(C)N=C2C(N)=O` yielded a TGI [1] of over 10 µM, a TGI [2] of over 10 µM and a TGI [3] of over 10 µM. It also gave a TGI [4] of over 10 µM, a TGI [5] of over 10 µM and a TGI [7] of over 10 µM. It also gave a TGI [8] of over 10 µM, a TGI [9] of over 10 µM and a TGI [10] of over 10 µM. For the same compound, the TGI [11] was over 10 µM, the TGI [59] was over 10 µM and the TGI [12] was over 10 µM. It also gave a TGI [13] of over 10 µM, a TGI [16] of over 10 µM and a TGI [19] of over 10 µM. The TGI [20] was over 10 µM, the TGI [21] was over 10 µM and the TGI [22] was over 10 µM. The TGI [27] was over 10 µM, the TGI [28] was over 10 µM and the TGI [30] was over 10 µM. It also gave a TGI [31] of over 10 µM, a TGI [32] of 7.64 µM and a TGI [34] of over 10 µM. For the same compound, the TGI [35] was over 10 µM, the TGI [38] was over 10 µM and the TGI [39] was over 10 µM. The TGI [40] was over 10 µM, the TGI [42] was over 10 µM and the TGI [47] was over 10 µM. For the same compound, the TGI [48] was 8.19 µM, the TGI [49] was over 10 µM and the TGI [50] was over 10 µM. It also gave a TGI [51] of over 10 µM, a TGI [52] of over 10 µM and a TGI [54] of over 10 µM. It also gave a TGI [56] of over 10 µM, a TGI [57] of over 10 µM and a TGI [58] of over 10 µM.
